Test results: patent publication US10336775B2 (Asceneuron SA, priority 2014, dated 2019)
Read-outs that look alike come from different tables or passages of the source.

Molecular target: His-Tagged hOGA (human O-GlcNAcase) (Homo sapiens (Human), UniProt O60502)
Test: Human O-GlcNAcase enzyme inhibition assay (Example B01)
Assay type: biochemical
Details: for IC50: OGA enzyme inhibition assay, activity range classes defined in μM; for OGA inhibitor activity (in words): measured according to Example B01

Sequence of His-Tagged hOGA (human O-GlcNAcase) (O60502 whole entry): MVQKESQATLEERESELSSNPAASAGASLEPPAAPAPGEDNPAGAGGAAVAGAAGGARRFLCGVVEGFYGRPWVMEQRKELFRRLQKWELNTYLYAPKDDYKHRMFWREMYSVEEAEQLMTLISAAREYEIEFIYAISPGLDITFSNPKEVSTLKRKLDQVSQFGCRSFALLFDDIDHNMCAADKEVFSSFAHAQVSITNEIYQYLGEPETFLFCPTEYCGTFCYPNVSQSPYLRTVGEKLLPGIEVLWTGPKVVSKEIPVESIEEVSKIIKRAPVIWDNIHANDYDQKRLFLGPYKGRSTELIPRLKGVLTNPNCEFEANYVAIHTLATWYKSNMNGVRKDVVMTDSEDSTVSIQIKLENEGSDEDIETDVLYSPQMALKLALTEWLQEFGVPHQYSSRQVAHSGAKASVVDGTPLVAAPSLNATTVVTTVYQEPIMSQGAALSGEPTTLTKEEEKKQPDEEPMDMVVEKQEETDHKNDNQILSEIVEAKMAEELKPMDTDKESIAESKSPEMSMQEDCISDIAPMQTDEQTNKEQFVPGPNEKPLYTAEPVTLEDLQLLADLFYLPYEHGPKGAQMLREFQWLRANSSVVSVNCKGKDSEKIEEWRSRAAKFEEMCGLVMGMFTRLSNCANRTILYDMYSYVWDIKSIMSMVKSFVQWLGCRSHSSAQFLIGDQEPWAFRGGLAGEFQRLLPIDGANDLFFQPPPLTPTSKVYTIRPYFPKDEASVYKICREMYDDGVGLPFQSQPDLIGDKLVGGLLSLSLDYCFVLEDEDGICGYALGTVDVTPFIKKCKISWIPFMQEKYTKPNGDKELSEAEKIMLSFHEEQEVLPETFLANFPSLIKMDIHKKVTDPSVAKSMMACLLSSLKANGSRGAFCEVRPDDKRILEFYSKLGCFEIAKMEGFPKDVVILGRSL

| IC50 (read-out: OGA IC50) | OGA inhibitor activity (in words) | Compound | IC50 (OGA IC50 (M)) |
| --- | --- | --- | --- |
| 0.2 to 1 µM | – | Cc1cccc(N2CCN(C(C)c3ccc4c(c3)OCO4)CC2)n1 (racemic) [Example 21, 1-(1-(Benzo[d][1,3]dioxol-5-yl)ethyl)-4-(6-methylpyridin-2-yl)piperazine] | – |
| 0.05 to 0.2 µM | – | CC(c1ccc2c(c1)OCO2)N1CCN(c2cnc(Cl)cn2)CC1 (racemic) [Example 25] | – |
| 0.05 to 0.2 µM | – | CC(c1ccc2c(c1)OCO2)N1CCN(c2ncc(CO)s2)CC1 (racemic) [Example 28, (2-(4-(1-(Benzo[d][1,3]dioxol-5-yl)ethyl)piperazin-1-yl)thiazol-5-yl)methanol] | – |
| 0.2 to 1 µM | – | CC(c1ccc2c(c1)OCO2)N1CCN(c2nc(C(=O)NC3CCCCC3)cs2)CC1 (racemic) [Example 33, 2-(4-(1-(Benzo[d][1,3]dioxol-5-yl)ethyl)piperazin-1-yl)-N-cyclohexylthiazole-4-carboxamide] | – |
| < 0.05 µM | very potent OGA inhibitors | Cc1ncc(N2CCN(C(C)c3ccc4c(c3)OCO4)CC2)s1 (racemic) [Example 37, 5-(4-(1-(Benzo[d][1,3]dioxol-5-yl)ethyl)piperazin-1-yl)-2-methylthiazole] | – |
| 0.05 to 0.2 µM | – | CC(c1ccc2c(c1)OCO2)N1CCN(c2ncc(Cl)cn2)CC1 (racemic) [Example 38] | – |
| 0.05 to 0.2 µM | – | COc1ccnc(N2CCN(C(C)c3ccc4c(c3)OCO4)CC2)n1 (racemic) [Example 39, 2-(4-(1-(Benzo[d][1,3]dioxol-5-yl)ethyl)piperazin-1-yl)-4-methoxypyrimidine] | – |
| 0.05 to 0.2 µM | – | CC(c1ccc2c(c1)OCO2)N1CCN(c2ccnc(Cl)n2)CC1 (racemic) [Example 40, 4-(4-(1-(Benzo[d][1,3]dioxol-5-yl)ethyl)piperazin-1-yl)-2-chloropyrimidine] | – |
| 0.05 to 0.2 µM | – | CC(c1ccc2c(c1)OCO2)N1CCN(c2nnc(N)s2)CC1 (racemic) [Example 41, 5-(4-(1-(benzo[d][1,3]dioxol-5-yl)ethyl)piperazin-1-yl)-1,3,4-thiadiazol-2-amine] | – |
| 0.05 to 0.2 µM | – | CC(C)NC(=O)c1cnc(N2CCN(C(C)c3ccc4c(c3)OCO4)CC2)s1 (racemic) [Example 43, 2-(4-(1-(Benzo[d][1,3]dioxol-5-yl)ethyl)piperazin-1-yl)-N-isopropylthiazole-5-carboxamide] | – |
| 0.2 to 1 µM | – | CCCNc1ccnc(N2CCN(C(C)c3ccc4c(c3)OCO4)CC2)n1 (racemic) [Example 45, 2-(4-(1-(Benzo[d][1,3]dioxol-5-yl)ethyl)piperazin-1-yl)-N-propylpyrimidin-4-amine] | – |
| 0.05 to 0.2 µM | – | CC(c1ccc2c(c1)OCO2)N1CCN(c2ccnc(N)n2)CC1 (racemic) [Example 46, 4-(4-(1-(Benzo[d][1,3]dioxol-5-yl)ethyl)piperazin-1-yl)pyrimidin-2-amine] | – |
| < 0.05 µM | very potent OGA inhibitors | CC(c1ccc2c(c1)OCO2)N1CCN(c2ncc(C(N)=O)s2)CC1 (racemic) [Example 48, 2-(4-(1-(Benzo[d](1,3)dioxol-5-yl)ethyl)piperazin-1-yl)thiazole-5-carboxamide] | – |
| 0.2 to 1 µM | – | CC(c1ccc2c(c1)CCO2)N1CCN(c2ncccn2)CC1 (racemic) [Example 53, 2-(4-(1-(2,3-dihydrobenzofuran-5-yl)ethyl)piperazin-1-yl)pyrimidine] | – |

Second part, the compound before the results:

| Compound | IC50 (read-out: OGA IC50) | OGA inhibitor activity (in words) | IC50 (OGA IC50 (M)) |
| --- | --- | --- | --- |
| CC(c1ccc2c(c1)OCO2)N1CCN(c2ccc(Cl)cn2)CC1 (racemic) [Example 20] | 0.2 to 1 µM | – | – |
| CC(c1ccc2c(c1)OCO2)N1CCN(c2nccc(N)n2)CC1 (racemic) [Example 22, 2-(4-(1-(Benzo[d][1,3]dioxol-5-yl)ethyl)piperazin-1-yl)pyrimidin-4-amine] | 0.05 to 0.2 µM | – | – |
| CC(=O)Nc1ccnc(N2CCN(C(C)c3ccc4c(c3)OCO4)CC2)n1 (racemic) [Example 23, N-(2-(4-(1-(Benzo[d][1,3]dioxol-5-yl)ethyl)piperazin-1-yl)pyrimidin-4-yl)acetamide] | 0.05 to 0.2 µM | – | – |
| CC(c1ccc2c(c1)OCO2)N1CCN(c2cc(Cl)ncn2)CC1 (racemic) [Example 24, 4-(4-(1-(Benzo[d][1,3]dioxol-5-yl)ethyl)piperazin-1-yl)-6-chloropyrimidine] | 0.05 to 0.2 µM | – | – |
| CCOC(=O)c1cnc(N2CCN(C(C)c3ccc4c(c3)OCO4)CC2)s1 (racemic) [Example 27, Ethyl 2-(4-(1-(benzo[d][1,3]dioxol-5-yl)ethyl)piperazin-1-yl)thiazole-5-carboxylate] | 0.2 to 1 µM | – | – |
| CC(c1ccc2c(c1)OCO2)N1CCN(c2nc(CO)cs2)CC1 (racemic) [Example 29, (2-(4-(1-(Benzo[d][1,3]dioxol-5-yl)ethyl)piperazin-1-yl)thiazol-4-yl)methanol] | 0.05 to 0.2 µM | – | – |
| CNC(=O)c1csc(N2CCN(C(C)c3ccc4c(c3)OCO4)CC2)n1 (racemic) [Example 30, 2-(4-(1-(Benzo[d][1,3]dioxol-5-yl)ethyl)piperazin-1-yl)-N-methylthiazole-4-carboxamide] | 0.05 to 0.2 µM | – | – |
| CC(C)NC(=O)c1csc(N2CCN(C(C)c3ccc4c(c3)OCO4)CC2)n1 (racemic) [Example 32, 2-(4-(1-(Benzo[d][1,3]dioxol-5-yl)ethyl)piperazin-1-yl)-N-isopropylthiazole-4-carboxamide] | 0.2 to 1 µM | – | – |
| CC(c1ccc2c(c1)OCO2)N1CCN(c2nc(C(N)=O)cs2)CC1 (racemic) [Example 35, 2-(4-(1-(Benzo[d][1,3]dioxol-5-yl)ethyl)piperazin-1-yl)thiazole-4-carboxamide] | 0.05 to 0.2 µM | – | – |
| Cc1cnc(N2CCN(C(C)c3ccc4c(c3)OCO4)CC2)s1 (racemic) [Example 36] | 0.05 to 0.2 µM | – | – |
| CC(c1ccc2c(c1)OCO2)N1CCN(c2nc(C(=O)N(C)C)cs2)CC1 (racemic) [Example 42, 2-(4-(1-(benzo[d][1,3]dioxol-5-yl)ethyl)piperazin-1-yl)-N,N-dimethylthiazole-4-carboxamide] | 0.2 to 1 µM | – | – |
| CC(c1ccc2c(c1)OCO2)N1CCN(c2ncc(C(=O)N(C)C)s2)CC1 (racemic) [Example 47, 2-(4-(1-(Benzo[d](1,3)dioxol-5-yl)ethyl)piperazin-1-yl)-N,N-dimethylthiazole-5-carboxamide] | – | – | 0.05 to 0.2 µM |
| CC(c1ccc2c(c1)OCCO2)N1CCN(c2nc(C(N)=O)cs2)CC1 (racemic) [Example 49, 2-(4-(1-(2,3-Dihydrobenzo[b][1,4]dioxin-6-yl)ethyl)piperazin-1-yl)thiazole-4-carboxamide] | 0.2 to 1 µM | – | – |
| CNC(=O)c1csc(N2CCN(C(C)c3ccc4c(c3)OCCO4)CC2)n1 (racemic) [Example 50, 2-(4-(1-(2,3-dihydrobenzo[b][1,4]dioxin-6-yl)ethyl)piperazin-1-yl)-N-methylthiazole-4-carboxamide] | 0.05 to 0.2 µM | – | – |
| CCOC(=O)c1cnc(N2CCN(C(C)c3ccc4c(c3)OCO4)CC2)nc1 (racemic) [Example 51, Ethyl 2-(4-(1-(benzo[d][1,3]dioxol-5-yl)ethyl)piperazin-1-yl)pyrimidine-5-carboxylate] | 0.05 to 0.2 µM | – | – |
| CC(c1ccc2c(c1)OCO2)N1CCN(c2ncc(CO)cn2)CC1 (racemic) [Example 52, (2-(4-(1-(benzo[d][1,3]dioxol-5-yl)ethyl)piperazin-1-yl)pyrimidin-5-yl)methanol] | < 0.05 µM | very potent OGA inhibitors | – |
| CC(=O)Nc1nccc(N2CCN(C(C)c3ccc4c(c3)OCO4)CC2)n1 (racemic) [Example 54, N-(4-(4-(1-(Benzo[d][1,3]dioxol-5-yl)ethyl)piperazin-1-yl)pyrimidin-2-yl)acetamide] | 0.05 to 0.2 µM | – | – |
